Data reported in ChEMBL document CHEMBL5131479, “Phage display-based discovery of cyclic peptides against the broad spectrum bacterial anti-virulence target CsrA” (Eur J Med Chem, 2022).
Where a SMILES comes first, the peptide text is derived from it. Bridges are numbered along the chain shown (N, C = ends). Triazole bridges read from a SMILES are 1,4-linked. [ ]: non-standard residue; d: D form. Ala(indol-2-yl) = N[C@@H](Cc1cc2ccccc2[nH]1)C(=O)O; Dap(N3) = [N-]=[N+]=NC[C@H](N)C(=O)O; Aha = [N-]=[N+]=NCC[C@H](N)C(=O)O; Pra = C#CC[C@H](N)C(=O)O

Legend:
Carbon storage regulator = Carbon storage regulator (Escherichia coli, UniProt P69913); experiment: Inhibition of 5'-AGACAAGGAUGU[flc] mRNA binding to biotinylated His6-tagged Escherichia coli CsrA measured by fluorescence polarization assay
Sequence of Carbon storage regulator (P69913 whole entry): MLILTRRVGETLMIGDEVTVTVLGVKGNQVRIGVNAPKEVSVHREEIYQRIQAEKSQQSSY

[1] = Inhibition of 5'-UUCACGGAGAA[flc] mRNA binding to biotinylated His6-tagged Yersinia pseudotuberculosis CsrA measured by fluorescence polarization assay
[2] = Inhibition of 5'-UUCACGGAGAA[flc] mRNA binding to biotinylated His6-tagged Yersinia pseudotuberculosis CsrA measured in presence of 5 mM DTT by fluorescence polarization assay
[3] = Binding affinity towards biotinylated His6-tagged Yersinia pseudotuberculosis CsrA measured by Microscale thermophoresis assay (MST)

CC(=O)N[C@H](C(=O)N[C@H]1CCn2nncc2C[C@@H](C(=O)N[C@@H](Cc2c[nH]c3ccccc23)C(N)=O)NC(=O)[C@H](CC(C)C)NC(=O)[C@H](CCC(=O)O)NC(=O)[C@H](CO)NC1=O)C(C)C
IC50 (Carbon storage regulator): 83.4 µM
IC50 [1]: 309 µM

CC(=O)N[C@H](C(=O)N[C@H]1Cc2cnnn2CC[C@@H](C(=O)N[C@@H](Cc2c[nH]c3ccccc23)C(N)=O)NC(=O)[C@H](CC(C)C)NC(=O)[C@H](CCC(=O)O)NC(=O)[C@H](CO)NC1=O)C(C)C
IC50 (Carbon storage regulator): 51.6 µM
IC50 [1]: 337 µM

CC[C@H](C)[C@H](NC(=O)[C@H]1CCCCN1C)C(=O)N[C@H](CCc1nc(C(=O)N[C@@H](Cc2ccc(O)cc2)C[C@H](C)C(=O)O)cs1)C(C)C
IC50 [1]: 11 µM

CC(=O)N[C@H](C(=O)N[C@H]1Cc2cnnn2C[C@@H](C(=O)N[C@@H](Cc2c[nH]c3ccccc23)C(N)=O)NC(=O)[C@H](CC(C)C)NC(=O)[C@H](CCC(=O)O)NC(=O)[C@H](CO)NC1=O)C(C)C
IC50 (Carbon storage regulator): 48.1 µM
IC50 [1]: 178 µM

CC(=O)N[C@@H](C)C(=O)N[C@H]1CSSC[C@@H](C(=O)N[C@@H](Cc2cc3ccccc3[nH]2)C(N)=O)NC(=O)[C@H](CC(C)C)NC(=O)[C@H](CCC(=O)O)NC(=O)[C@H](CO)NC1=O (Ac-ACSELC[Ala(indol-2-yl)]-NH2; disulfide 2-6)
IC50 [1]: 114 µM

CC(=O)N[C@H]1CSSC[C@@H](C(=O)N[C@@H](Cc2cc3ccccc3[nH]2)C(N)=O)NC(=O)[C@H](CC(C)C)NC(=O)[C@H](CCC(=O)O)NC(=O)[C@H](CO)NC1=O (Ac-CSELC[Ala(indol-2-yl)]-NH2; disulfide 1-5)
IC50 [1]: 128 µM

CC(=O)N[C@H](C(=O)N[C@H]1CSSC[C@@H](C(=O)N[C@@H](Cc2cc3ccccc3[nH]2)C(N)=O)NC(=O)[C@H](CC(C)C)NC(=O)[C@H](CCC(=O)O)NC(=O)[C@H](C)NC1=O)C(C)C (Ac-VCAELC[Ala(indol-2-yl)]-NH2; disulfide 2-6)
IC50 [1]: > 1000 µM

CC(=O)N[C@H](C(=O)N[C@H]1CSSC[C@@H](C(=O)N[C@@H](Cc2cc3ccccc3[nH]2)C(N)=O)NC(=O)[C@H](CC(C)C)NC(=O)[C@H](C)NC(=O)[C@H](CO)NC1=O)C(C)C (Ac-VCSALC[Ala(indol-2-yl)]-NH2; disulfide 2-6)
IC50 [1]: 22.8 µM

CC(=O)N[C@H](C(=O)N[C@H]1CSSC[C@@H](C(=O)N[C@@H](Cc2cc3ccccc3[nH]2)C(N)=O)NC(=O)[C@H](C)NC(=O)[C@H](CCC(=O)O)NC(=O)[C@H](CO)NC1=O)C(C)C (Ac-VCSEAC[Ala(indol-2-yl)]-NH2; disulfide 2-6)
IC50 [1]: 57.9 µM

CC(=O)N[C@H](C(=O)N[C@H]1CSSC[C@@H](C(N)=O)NC(=O)[C@H](CC(C)C)NC(=O)[C@H](CCC(=O)O)NC(=O)[C@H](CO)NC1=O)C(C)C (Ac-VCSELC-NH2; disulfide 2-6)
IC50 [1]: > 1000 µM

CC(=O)N[C@H](C(=O)N[C@H]1CSSC[C@@H](C(=O)N[C@@H](C)C(N)=O)NC(=O)[C@H](CC(C)C)NC(=O)[C@H](CCC(=O)O)NC(=O)[C@H](CO)NC1=O)C(C)C (Ac-VCSELCA-NH2; disulfide 2-6)
IC50 [1]: > 500 µM

CC(=O)N[C@H](C(=O)N[C@H]1CSSC[C@@H](C(=O)N[C@@H](Cc2cc3ccccc3[nH]2)C(N)=O)NC(=O)[C@H](CC(C)C)NC(=O)[C@H](CCC(=O)O)NC(=O)[C@H](CO)NC1=O)C(C)C (Ac-VCSELC[Ala(indol-2-yl)]-NH2; disulfide 2-6)
IC50 (Carbon storage regulator): 182 µM
IC50 [2]: > 1000 µM
Kd [3]: 10.5 µM
IC50 [1]: 6.9 µM

CC(=O)N[C@H](C(=O)N[C@H]1CSSC[C@@H](C(=O)N[C@@H](Cc2cc3ccccc3[nH]2)C(=O)O)NC(=O)[C@H](CC(C)C)NC(=O)[C@H](CCC(=O)O)NC(=O)[C@H](CO)NC1=O)C(C)C (Ac-VCSELC[Ala(indol-2-yl)]-OH; disulfide 2-6)
IC50 [1]: 17.4 µM

CC(=O)N[C@H](C(=O)N[C@H]1Cn2cc(nn2)C[C@@H](C(=O)N[C@@H](Cc2c[nH]c3ccccc23)C(N)=O)NC(=O)[C@H](CC(C)C)NC(=O)[C@H](CCC(=O)O)NC(=O)[C@H](CO)NC1=O)C(C)C (Ac-V[Dap(N3)]SEL[Pra]W-NH2; triazole 2-6)
IC50 (Carbon storage regulator): 6.8 µM
IC50 [1]: 92.8 µM

CC(=O)N[C@H](C(=O)N[C@H]1Cc2cn(nn2)CC[C@@H](C(=O)N[C@@H](Cc2c[nH]c3ccccc23)C(N)=O)NC(=O)[C@H](CC(C)C)NC(=O)[C@H](CCC(=O)O)NC(=O)[C@H](CO)NC1=O)C(C)C (Ac-V[Pra]SEL[Aha]W-NH2; triazole 2-6)
IC50 (Carbon storage regulator): 3.4 µM
IC50 [1]: 76 µM

CC(=O)N[C@H](C(=O)N[C@H]1Cc2cn(nn2)C[C@@H](C(=O)N[C@@H](Cc2c[nH]c3ccccc23)C(N)=O)NC(=O)[C@H](CC(C)C)NC(=O)[C@H](CCC(=O)O)NC(=O)[C@H](CO)NC1=O)C(C)C (Ac-V[Pra]SEL[Dap(N3)]W-NH2; triazole 2-6)
IC50 (Carbon storage regulator): 4.9 µM
IC50 [1]: 35.3 µM

CC(C)C[C@@H]1NC(=O)[C@H](CCC(=O)O)NC(=O)[C@H](CO)NC(=O)[C@@H](NC(=O)[C@@H](N)C(C)C)CSSC[C@@H](C(=O)N[C@@H](Cc2cc3ccccc3[nH]2)C(N)=O)NC1=O (H-VCSELC[Ala(indol-2-yl)]-NH2; disulfide 2-6)
IC50 [1]: 27.6 µM

Ac-VASELAW-NH2
IC50 [1]: > 1000 µM
